Values quoted from earlier work in patent US7858126B2 (Trinity Laboratories Inc., priority 2006, dated 2010).

Experiments:
[1] = tested on: ornithine decarboxylase (ODC); details: mice
[2] = tested on: skin papillomas; details: mice, DMBA-initiated, TPA-promoted

Substance: santalol
- decrease of TPA-induced ODC activity [1]: 70%
- decrease of papilloma incidence [2]: 67%
- decrease of papilloma multiplicity [2]: 96%
